From US10716829B2, “Method and composition for treatment of hair loss” (NATIONAL HEALTH RESEARCH INSTITUTES, priority 2015, dated 2020)

System: bulge keratinocytes (CD34+α6+)
Experiment: Colony forming assay on sorted CD34+α6+ bulge keratinocytes in absence or presence of DAPT
Assay type: cell-based, mouse
Conditions: 10 μM for 7 days, cultured with feeders, vs DMSO-treated cultures; keratinocytes from 8-week-old wild type mice
Description: FIG. 5 is a graph showing quantification of a colony forming assay on sorted CD34+α6+ keratinocytes in the absence or presence of DAFT. Equal numbers of sorted CD34±α6+ keratinocytes from 8-week-old wild type mice were cultured with feeders and treated with either DMSO as a vehicle control or 10 μM DAFT for 7 days. […] P<0.05, **:P<0.01.
We investigated whether the DSB signal seen in Pofut1/Tgfb3-Cre hair follicles was caused by aberrant cell proliferation, which has been reported in the case of oncogene-induced DNA damage checkpoint responses. To test this hypothesis, bulge keratinocytes were isolated from 8 weeks old wild type mice by FACS and cultured in the absence or presence of a γ-secretase inhibitor DAPT (Notch signaling inhibitor).

C[C@H](NC(=O)Cc1cc(F)cc(F)c1)C(=O)N[C@H](C(=O)OC(C)(C)C)c1ccccc1 [DAPT]
numbers of colonies: increases | size of colonies: increases
